The conditions of series [1]: high humidity, mentioned in CN105085533A, cited from earlier work.
A short description of series [2]: stability test in water, stirred at 25° C. for 24 hours, crystal form detection by XRPD. Type of series: physicochemical. The note with it: for Crystal Form: 100 mg in 5 mL deionized water, stirred at 25° C. for 24 hours, XRPD.
A short description of series [3]: crystal form stability at high humidity. Type of series: physicochemical.
Series [4] in a line: crystal stability test, samples placed at 80° C. for 24 hours, crystal form detection by XRPD. The class given is physicochemical. As to conditions: after being placed for 24 hours at 80° C.
The nature of series [5]: hygroscopicity, isothermal adsorption curve (weight gain versus relative humidity). The class given is physicochemical.
For series [6] the following is noted: desiccator, 4 months, room temperature, relative humidity of 10% to 90%.
The next series is described as follows: physchem. As to conditions: deionized water, 25 °C, thermodynamic from solid.
Series [7] in a line: water solubility test (apparent water solubility, HPLC detection). As to conditions: 10 mg in 10 mL deionized water, sonicated at 25° C. for 1 minute.
Where [8] appears, read: listed as co-crystal form of ribociclib monosuccinate and citric acid.

Where two headings read alike, the source gives them in different places.

Consider `CN(C)C(=O)c1cc2cnc(Nc3ccc(N4CCNCC4)cn3)nc2n1C1CCCC1.O=C(O)CCC(=O)O` [listing 1 of 2 here], for which the “sensitivity of the crystal form to humidity” value is on record as “easily converts to other crystal forms at high humidity” in series [1] and “easily convert to other crystal forms at high humidity” in series [1] (listed as anhydrate crystal form).
For the compound `CN(C)C(=O)c1cc2cnc(Nc3ccc(N4CCNCC4)cn3)nc2n1C1CCCC1.O=C(O)CCC(=O)O` [listing 2 of 2 here], in series [2], the “Crystal Form” value is “cannot maintain its original crystal form”. Besides, in series [2] (in water, conditions not given, found by the inventors), the “crystal stability in water” value is recorded as “crystallinity decreased significantly in water”.
`CN(C)C(=O)c1cc2cnc(Nc3ccc(N4CCNCC4)cn3)nc2n1C1CCCC1` [co-crystal of ribociclib and saccharin]: the “crystal form at high humidity” value in series [3] was “remains unchanged”. Moreover, the “Crystal Form” value is given as “Unchanged” in series [4]; “remains unchanged” in series [4] (listed as co-crystal form of ribociclib and saccharin). Also, the weight gain in series [5] (relative humidity of 0-10%) was determined as 0.04%; in series [5] (relative humidity of 10 to 80%), 0.45%. The “appearance, XRPD and melting point after storage” value (“appearance … after storage” below) in series [6] is reported as “remain unchanged”. In addition, the solubility at 1 min in “physchem” was around 100 µg/mL.
With `CN(C)C(=O)c1cc2cnc(Nc3ccc(N4CCNCC4)cn3)nc2n1C1CCCC1.O=C(O)c1cc(=O)[nH]c(=O)[nH]1`, the Solubility in series [7] turned out to be 110 µg/mL. Moreover, the “crystal form at high humidity” value in series [3] is “remains unchanged”. Further, the “appearance … after storage” value in series [6] is on record as “remain unchanged”.
Turning to `CN(C)C(=O)c1cc2cnc(Nc3ccc(N4CCNCC4)cn3)nc2n1C1CCCC1.O=C(O)CC(O)(CC(=O)O)C(=O)O.O=C(O)CCC(=O)O`, the “crystal form at high humidity” value in series [3] is reported as “remains unchanged”. Also, the “Crystal Form” value in series [4] is given as “Unchanged”; in series [4] (setting [8]) it was “remains unchanged”; in series [2] (setting [8]), “remains unchanged”; in series [2] (listed as co-crystal of ribociclib monosuccinateand citric acid), “Unchanged”. In addition, the “appearance … after storage” value in series [6] was “remain unchanged”.

What is called solubility is how much of the substance goes into solution per volume. In general, Solubility refers to the concentration that dissolves in the medium under given conditions.

The values are drawn from patent US11286259B2, “Co-crystals of ribociclib and co-crystals of ribociclib monosuccinate, preparation method therefor, compositions thereof, and uses thereof” (Hangzhou SoliPharma Co., Ltd., priority 2017, dated 2022).
